In patent publication US10774112B2, “Biomimetic peptide and biodegradable delivery platform for the treatment of angiogenesis- and lymphangiogenesis-dependent diseases” (THE JOHNS HOPKINS UNIVERSITY, priority 2013, dated 2020):

Key:
lymphangiogenesis = test: Lymphangiogenesis in vivo (LYVE-1 staining); settings: FIG. 11
angiogenesis = test: Angiogenesis in vivo (lectin staining, IHC)
[1] = test system: human umbilical vein endothelial cells (HUVEC); test: Proliferation assay (WST-1), HUVEC; format: cell-based; settings: FIG. 1
Experimental: (§1) A colorimetric based proliferation assay using WST-1 (Roche, 11644807001) proliferation reagent was carried out using HREC cells, HUVEC cells, and the breast cancer cells MDA-MB-231, MCF-7, and SUM149. 2000 cells/well were plated in 96-well plates and allowed to adhere overnight. On the following day, the media was exchanged with fully supplemented media containing peptides or equivalent DMSO vehicle for the controls. Three days later, the media containing the peptides was replaced with serum-free EBM-2 media containing WST-1 reagent and the plates were incubated for four hours as per the manufacturer's recommendations. Changes in color, due to the formazan dye resulted from the cleavage of the tetrazolium salt WST-1 by the mitochondrial succinate-tetrazolium reductase, were read on a Victor V fluorescence plate reader (Perkin Elmer, Mass.) by measuring the absorbance at 450 nm. Dose response curves of percent live cells (in comparison to untreated cells, but incubated in complete media with 0.2% DMSO) were created. Assays were performed in at least two independent replicates and each replicate was performed using three experimental triplicates.

vascular leakage = test: Vascular leakage in Tet/Opsin/VEGF mouse model; format: in vivo, mice; settings: FIGS. 15A-B
Experimental: Vascular Permeability in Mouse Eyes:
Mice were injected intravitreally with 1 μg of SP2043 (SEQ ID NO: 1) in one eye, and vehicle in the fellow eye and vehicle control was injected in the other eye of adult double transgenic Tet/Opsin/VEGF mice. Three days later, the mice were given 2 mg/mL doxycycline in the drinking water for 3 days. At that time the animals were anesthetized and their pupils dilated as for standard fundoscopy. The eyes were examined to compare the number of animals that had retinal detachments under the two treatments by fundus imaging using Micron II retinal imaging and optical coherence tomography imaging using published protocols.

[2] = test system: triple-negative breast cancer cell line SUM149; test: Proliferation assay (WST-1), SUM149; format: cell-based; settings: in vitro; FIG. 7
Experimental: as §1

[3] = test system: microvascular endothelial cell (MEC); test: MEC tube formation assay; format: cell-based; settings: 25 μM peptide; FIG. 3 C-D
c-Met = test: Phosphorylation of c-Met in vivo; settings: FIG. 10
[4] = test system: insulin growth factor 1 (IGF1) signaling; test: IGF1 signaling in vitro in MEC; format: cell-based; settings: FIG. 6
[5] = test system: hepatocyte growth factor (HGF) signaling; test: HGF signaling in vitro in MEC; format: cell-based; settings: FIG. 6
[6] = test system: human retinal endothelial cells (HREC); test: Adhesion assay (RT-CIM), HREC; format: cell-based; settings: FIG. 2
Experimental: Similar to the migration assays, the inhibition activity of the peptide in cellular adhesion was assessed using the RT-CIM technology. In this case, 25,000 cells/well were plated in 16 wells E-plates (Roche, Basel Switzerland) in the presence or absence of the peptide. The adhesion was monitored over time (3 hours) by measuring changes in the electrical impedance, which is a direct measure of the cells adhering on the electrodes. Assays were performed in at least two independent replicates and each replicate was performed using two experimental duplicates.

[7] = test system: human retinal endothelial cells (HREC); test: Proliferation assay (WST-1), HREC; format: cell-based; settings: FIG. 2
Experimental: as §1

[8] = Accumulation in tumor and organs after systemic intravenous injection; format: in vivo; settings: systemically intravenously injected; FIG. 31
[9] = test system: VEGF-induced neovascularization; test: rho/VEGF transgenic mice with VEGF-induced neovascularization; format: in vivo; settings: compared to a control; FIGS. 13C-E
Experimental: Transgenic Mice with VEGF-Induced Neovascularization.
At postnatal day 14, hemizygous rho/VEGF mice were given an intraocular injection of 1 μL of 5% DMSO/water, 1 μL of 5% DMSO/water containing 0.1 μg or 1 μg of SP2043 (SEQ ID No: 1) in one eye. Intraocular injections were done under a dissecting microscope with a Harvard Pump Microinjection System (Harvard Apparatus, Holliston, Mass.) and pulled glass micropipettes. At postnatal day 21, the total area of subretinal neovascularization (NV) per eye was quantified. Briefly, mice were anesthetized and perfused with 1 mL of PBS containing 25 mg/mL of fluorescein-labeled dextran (average molecular weight of 2×10^6, Sigma-Aldrich, St. Louis, Mo.). The eyes were removed and fixed for 1 hour in 10% phosphate-buffered formalin. […] The retinas were examined by fluorescence microscopy at 200× magnification, which provides a narrow depth of field so that when focusing on NV on the outer surface of the retina, the remainder of the retinal vessels are out of focus, allowing easy delineation of the NV. […] By using Image analysis software (Image-Pro Plus; Media Cybernetics, Silver Spring, Md.), an investigator masked with respect to treatment group allowed the software to recognize and calculated the total area of subretinal NV per eye as previously described.

neovascularization = test: Neovascularization in a rabbit model; format: in vivo; settings: day 34 following intravitreal injection into rabbit eyes; FIG. 26
HGF signaling = HGF signaling in MDA-MB-231 cells; format: cell-based, human; settings: FIG. 8

LRRFSTAPFAFIDINDVINF (Artificial sequence based on human Collagen Type IV protein) [SP2043]
lymphangiogenesis as seen by LYVE-1 staining (lymphangiogenesis): inhibited
angiogenesis in vivo (angiogenesis; FIG. 10): inhibit
angiogenesis as seen by lectin staining for IHC (angiogenesis; FIG. 11): inhibited
proliferation of HUVEC [1]: inhibit
vascular leakage in Tet/Opsin/VEGF mouse model (vascular leakage): inhibited
proliferation of SUM149 [2]: inhibit
MEC tube formation [3]: inhibit
phosphorylation of c-Met in vivo (c-Met): inhibit
IGF1 signaling in MEC [4]: inhibit
HGF signaling in MEC [5]: inhibit
adhesion of HREC [6]: inhibit
proliferation of HREC [7]: inhibit
accumulation in tumor and other organs [8]: accumulated in tumor as well as other organs
neovascularization in rho-VEGF mouse model [9]: inhibited
neovascularization in a rabbit model (neovascularization): Inhibition
HGF signaling in MDA-MB-231 cells (HGF signaling): inhibit
